# Measured values reported in publication PMC9068900, “Pharmacology of Kappa Opioid Receptors: Novel Assays and Ligands” (Frontiers in Pharmacology, 2022).
# Where “and” joins values, the source holds several entries; their conditions need not be identical. Identical values can stand only once. Like-named read-outs stand apart in the source and are kept apart here. Non-standard residues stand in square brackets, D forms with d. Residues, ends and D or L forms follow the SMILES beside them. Dmt = Cc1cc(O)cc(C)c1C[C@H](N)C(=O)O; Tic = O=C(O)[C@@H]1Cc2ccccc2CN1
# How the values were obtained:
# kappa opioid receptor [1] = test system: kappa opioid receptor; parameters: method as in Zhu et al., 1997; Birch et al., 1987; conditions: ref Zhu et al., 1997; Birch et al., 1987; cited from earlier work
# [2] = target: T1, human kappa opioid receptor (Homo sapiens, UniProt P41145); test: BRET kappa-β-arrestin 2 interaction, SH-SY5Y whole cells; format: cell-based; parameters: 13-mer linker peptide […]; expressed in transfected cells; enriched plasma membranes used
# [3] = target: T1, human kappa opioid receptor; test: biochemical; format: biochemical; parameters: 13-mer linker peptide […]; expressed in transfected cells; enriched plasma membranes used
# [4] = target: T1, human kappa opioid receptor; test: Calcium mobilization in CHO cells co-expressing the kappa receptor and Gαqi5; format: cell-based; parameters: expressed in transfected cells
# kappa opioid receptor [5] = conditions: ref Simonin et al., 1995; cited from earlier work
# [6] = target: T1, human kappa opioid receptor; test: Dynamic mass redistribution (DMR) label-free assay in CHO cells; format: cell-based; parameters: expressed in transfected cells
# Description: DMR experiments were conducted as previously described ([Malfacini et al., 2018]). Chinese Hamster Ovary (CHO) cells stably expressing the human kappa receptor were kindly provided by L Toll (Torrey Pines Institute for Molecular Studies, Port St. Lucie, United States). Cells were cultured in Dulbecco’s Modified Eagle Medium: Nutrient Mixture F-12 (DMEM/F12) supplemented with 10% (v/v) Fetal Calf Serum (FCS), 100 U/ml penicillin, 100 μg/ml streptomycin, 2 mM L-glutamine, 15 mM HEPES. The medium was supplemented with 400 μg/ml G418 to maintain expression. Cells were seeded at a density of 45,000 cells/well in 120 μL into fibronectin-coated EnspireTM-LC 96-wells plates and cultured for 20 h to form a confluent monolayer. On the day of the experiment, cells were washed twice and maintained with assay buffer: HBSS with 20 mM HEPES, 0.01% BSA fraction V; for 90 min before the experiment. DMR was monitored in real-time with a temporal resolution of 44 s throughout the assay. Experiments were performed at 37°C, using an EnSight Multimode Plate Reader (PerkinElmer). A 5 min baseline was first established, followed by adding compounds manually in a volume of 40 μL and recording compound-triggered DMR signal for 60 min. In antagonism experiments, ligands tested as antagonists were added 30 min before agonist administration. Maximum picometers (pm) modification (peak) were used to determine agonist response after baseline normalization.
# The pharmacological terminology is consistent with the International Union of Basic and Clinical Pharmacology (IUPHAR) recommendations ([Neubig et al., 2003]). Concentration-response curves to agonists were fitted to the four-parameter logistic nonlinear regression model as follows: Effect=Basal+ Emax−Basal/1+10^ (LogEC50−Log[ligand]) × HillSlope
# If unsurmountable antagonist behavior was detected, the pKB value was derived as follows: a double-reciprocal plot of equi-effective concentrations of agonist (A) in the absence (1/A) and presence (1/A’) of the antagonist (B) was constructed and pKB was derived from the equation pKB = log {(slope-1)/[B]} ([Kenakin, 2009]).
# guinea pig ileum = test system: guinea pig ileum; parameters: method as in Guerrini et al., 1998; conditions: ref Guerrini et al., 1998; cited from earlier work
# rabbit jejunum = test system: rabbit jejunum; parameters: method as in Guerrini et al., 1998; conditions: ref Guerrini et al., 1998; cited from earlier work
# kappa opioid receptor [7] = test system: kappa opioid receptor; parameters: method as in Guerrini et al., 1998; conditions: ref Guerrini et al., 1998; cited from earlier work
# T1 sequence (P41145 whole entry): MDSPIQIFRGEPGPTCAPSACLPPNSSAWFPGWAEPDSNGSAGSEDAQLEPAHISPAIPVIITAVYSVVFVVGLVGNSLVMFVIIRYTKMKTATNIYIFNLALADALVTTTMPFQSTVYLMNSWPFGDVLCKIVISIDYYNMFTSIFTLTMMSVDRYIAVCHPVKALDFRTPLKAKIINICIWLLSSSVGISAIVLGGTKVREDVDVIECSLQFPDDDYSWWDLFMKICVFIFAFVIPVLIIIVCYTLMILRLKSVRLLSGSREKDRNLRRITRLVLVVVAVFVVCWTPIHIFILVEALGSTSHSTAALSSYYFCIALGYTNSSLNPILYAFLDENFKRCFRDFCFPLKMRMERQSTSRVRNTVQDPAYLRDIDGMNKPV
smiles,measurement,setting,value
"Oc1ccc2c3c1O[C@H]1c4[nH]c5c(c4C[C@@]4(O)[C@@H](C2)N(CC2CC2)CC[C@]314)C[C@@]1(O)[C@H]2Cc3ccc(O)c4c3[C@@]1(CCN2CC1CC1)[C@H]5O4 [Nor-BNI, Nor-Binaltorphimine]",Potency,kappa opioid receptor [1],0.1 nM
same,BRET β-Arrestin 2 pEC50 (CL95%),"[2]; SH-SY5Y cells, kappa-RLuc/β-arrestin 2-RGFP",inactive
same,BRET β-Arrestin 2 α,[2]; relative to Dyn A,inactive
same,Emax ± sem,"[3]; 5 min, fraction of Dyn A maximal effect",inactive
same,pEC50 (CL95%),[3]; 5 min after compound addition,inactive
same,Calcium Mobilization pEC50 (CL95%),"[4]; CHO cells, human kappa + Gαqi5",inactive
same,Calcium Mobilization α (intrinsic activity: maximal effect divided by that of Dyn A),"[4]; CHO cells, human kappa + Gαqi5",inactive
same,Stimulation of calcium flux (in words),[4]; tested as agonist,completely inactive
same,Affinity,kappa opioid receptor [5],approximately 1 nM
same,DMR pEC50 (CL95%),"[6]; CHO cells, human kappa",inactive
same,DMR α,[6]; relative to Dyn A,inactive
same,Effect on DMR baseline (in words),[6]; tested as agonist,did not modify DMR baseline
"CC[C@H](C)[C@H](NC(=O)[C@H](CCCNC(=N)N)NC(=O)[C@H](CCCNC(=N)N)NC(=O)[C@H](CC(C)C)NC(=O)[C@H](Cc1ccccc1)NC(=O)CNC(=O)[C@@H]1Cc2ccccc2CN1C(=O)[C@@H](N)Cc1c(C)cc(O)cc1C)C(=O)N[C@@H](CCCNC(=N)N)C(=O)N1CCC[C@H]1C(=O)N[C@@H](CCCCN)C(N)=O [[Dmt^1,Tic^2], [Dmt^1,Tic^2]Dyn(1-11)-NH2] (H-[Dmt][Tic]GFLRRIRPK-NH2; N-terminus assumed)",Antagonist potency,guinea pig ileum,90 nM
same,BRET β-Arrestin 2 pA2 (CL95%),[2],7.3
same,BRET β-Arrestin 2 pEC50 (CL95%),[2],inactive
same,BRET β-Arrestin 2 α,[2],inactive
same,Residual agonist activity (in words),[2],did not show any residual agonist activity
same,BRET β-Arrestin 2 pA2 (CL95%),[2]; sh-sy5y cells,7.3 (6.5–8.1)
same,BRET G Protein pA2 (CL95%),[3],7.5
same,BRET G Protein pEC50 (CL95%),[3],6.95 (6.14–7.75)
same,BRET G Protein α,[3],0.35
same,Emax ± sem,[3],0.30 ± 0.02 and 0.35 ± 0.06
same,pEC50 (CL95%),[3],7.09
same,BRET G Protein pA2 (CL95%),[3]; sh-sy5y cell membranes,7.5 (5.35–9.65)
same,Calcium Mobilization pA2 (CL95%),[4],6.6
same,Calcium Mobilization pEC50 (CL95%),[4],∼6.9
same,Calcium Mobilization α (intrinsic activity: maximal effect divided by that of Dyn A),[4],0.15
same,Increase of calcium levels,[4],50 % over the baseline
same,Calcium Mobilization pA2 (CL95%),[4]; cho cells,6.6 (6.16–7.14)
same,Antagonist potency,rabbit jejunum,8 nM
same,Affinity at the mu opioid receptor relative to kappa (in words),kappa opioid receptor [7],equal affinity
same,Affinity values,kappa opioid receptor [7],3.3—4.3 nM
same,Higher affinity at the delta opioid receptor,kappa opioid receptor [7],10 fold
same,DMR pA2 (CL95%),[6],7.7
same,DMR pEC50 (CL95%),[6],7.11 (5.61–8.61)
same,DMR α,[6],0.47
same,Effect on DMR baseline (in words),[6],slightly stimulated the DMR response only at micromolar concentrations
same,DMR pA2 (CL95%),[6]; cho cells,7.7 (7.11–8.29)
